Tests used:
[1] = tested on: H929 multiple myeloma tumour line; experiment: In vitro cytotoxicity, MTT assay, 48 hours; type: cell-based; settings: H929 cells, 48 hours exposure, cell viability
Procedure: The cytotoxicity studies were carried out on the H929 multiple myeloma tumour line.
The cells are distributed onto microplates and exposed to the test compounds for 48 hours.

Mcl-1 protein = Mcl-1 protein (Homo sapiens, UniProt Q07820); experiment: Inhibition of Mcl-1 by the fluorescence polarisation technique (Method 1 or Method 2); type: binding; settings: for IC50: fluorescence polarisation, Fluorescein labelled ligand, Method 1 (not underlined) or Method 2 (underlined), read-out: IC50 (μM) Mcl-1 FP
Sequence of Mcl-1 protein (Q07820 whole entry): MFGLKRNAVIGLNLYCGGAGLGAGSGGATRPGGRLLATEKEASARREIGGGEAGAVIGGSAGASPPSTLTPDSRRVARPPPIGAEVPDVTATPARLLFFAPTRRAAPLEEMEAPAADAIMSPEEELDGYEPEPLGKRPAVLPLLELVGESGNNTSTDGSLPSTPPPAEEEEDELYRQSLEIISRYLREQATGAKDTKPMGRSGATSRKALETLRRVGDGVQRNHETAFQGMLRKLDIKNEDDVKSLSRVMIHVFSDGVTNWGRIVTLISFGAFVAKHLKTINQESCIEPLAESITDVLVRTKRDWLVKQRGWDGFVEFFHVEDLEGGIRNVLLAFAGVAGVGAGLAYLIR
Outline: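 Binding measured by FP, with Mcl-1 protein and fluorescein-labelled ligand mixed with compounds in an 11-point series at 5% final DMSO. Method 2 used 10 nM each of protein and ligand in phosphate buffer (20 mM Na2HPO4, 1 mM EDTA, 50 mM NaCl, pH 7.4); Method 1 used 5 nM protein, 1 nM ligand in HEPES buffer (10 mM HEPES, 150 mM NaCl, 0.05% Tween 20, pH 7.4).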

[2] = partial inhibitors, @ 10 μM test compound

Row | SMILES | IC50 ([1]; Homo sapiens, NCI-H929) [nM] | IC50 (Mcl-1 protein) [µM] | IC50 [1] [nM] | further results
1 | CCCCn1nccc1COc1ccccc1CC(Nc1ncnc2sc(-c3ccc(F)cc3)c(-c3ccc(OCCN4CCN(C)CC4)c(Cl)c3C)c12)C(=O)O [Example 6, 2-[(1-butyl-1H-pyrazol-5-yl)methoxy]-N-[(5Sa)-5-{3-chloro-2-methyl-4-[2-(4-methylpiperazin-1-yl)ethoxy]phenyl}-6-(4-fluorophenyl)thieno[2,3-d]pyrimidin-4-yl]-D-phenylalanine] | > 600 | 0.013 |  | 
2 | Cc1c(-c2c(-c3ccco3)sc3ncnc(N[C@H](Cc4ccccc4C(N)=O)C(=O)O)c23)ccc(OCCN2CCN(C)CC2)c1Cl [Example 11, 2-carbamoyl-N-[5-{3-chloro-2-methyl-4-[2-(4-methylpiperazin-1-yl)ethoxy]phenyl}-6-(furan-2-yl)thieno[2,3-d]pyrimidin-4-yl]-D-phenylalanine] | > 3750 |  |  | inhibition at 10 µM (Mcl-1 protein; partial inhibitors, @ 10 μM test compound, read-out: percentage fluorescence polarisation inhibition, Mcl-1 FP): 35.5%
3 | Cc1c(-c2c(-c3ccco3)sc3ncnc(NC(Cc4ccccc4OCc4ccccn4)C(=O)O)c23)ccc(OCCN2CCN(C)CC2)c1Cl [Example 12, N-[(5Sa)-5-{3-chloro-2-methyl-4-[2-(4-methylpiperazin-1-yl)ethoxy]phenyl}-6-(furan-2-yl)thieno[2,3-d]pyrimidin-4-yl]-2-(pyridin-2-ylmethoxy)-D-phenylalanine] | 647 | 0.014 |  | 
4 | Cc1c(-c2c(-c3ccco3)sc3ncnc(NC(Cc4ccccc4OCc4ccccn4)C(=O)O)c23)ccc(OCCN2CCN(C)CC2)c1Cl [Example 13, N-[(5Ra)-5-{3-chloro-2-methyl-4-[2-(4-methylpiperazin-1-yl)ethoxy]phenyl}-6-(furan-2-yl)thieno[2,3-d]pyrimidin-4-yl]-2-(pyridin-2-ylmethoxy)-D-phenylalanine] |  |  | > 3750 | percentage fluorescence polarisation inhibition, Mcl-1 FP (Mcl-1 protein; [2]): 58% @ 10 μM
5 | Cc1c(-c2c(-c3ccc(F)o3)sc3ncnc(NC(Cc4ccccc4O)C(=O)O)c23)ccc(OCCN2CCN(C)CC2)c1Cl [Example 14, N-[(5Sa)-5-{3-chloro-2-methyl-4-[2-(4-methylpiperazin-1-yl)ethoxy]phenyl}-6-(5-fluorofuran-2-yl)thieno[2,3-d]pyrimidin-4-yl]-2-hydroxy-D-phenylalanine] | 721 | 0.038 |  | 
6 | COc1ccccc1C[C@@H](Nc1ncnc2sc(-c3ccc(F)o3)c(-c3ccc(OCCN4CCN(C)CC4)c(Cl)c3C)c12)C(=O)O [Example 15, N-[(5Ra)-5-{3-chloro-2-methyl-4-[2-(4-methylpiperazin-1-yl)ethoxy]phenyl}-6-(5-fluorofuran-2-yl)thieno[2,3-d]pyrimidin-4-yl]-2-methoxy-D-phenylalanine] |  |  | > 3750 | percentage fluorescence polarisation inhibition, Mcl-1 FP (Mcl-1 protein; [2]): 40.05% @ 10 μM
7 | COc1ccccc1CC(Nc1ncnc2sc(-c3ccc(F)o3)c(-c3ccc(OCCN4CCN(C)CC4)c(Cl)c3C)c12)C(=O)O [Example 16, N-[(5Sa)-5-{3-chloro-2-methyl-4-[2-(4-methylpiperazin-1-yl)ethoxy]phenyl}-6-(5-fluorofuran-2-yl)thieno[2,3-d]pyrimidin-4-yl]-2-methoxy-D-phenylalanine] | 99.3 | 0.006 |  | 
8 | Cc1c(-c2c(-c3ccc(F)o3)sc3ncnc(NC(Cc4ccccc4OCC(F)(F)F)C(=O)O)c23)ccc(OCCN2CCN(C)CC2)c1Cl [Example 17, N-[(5Sa)-5-{3-chloro-2-methyl-4-[2-(4-methylpiperazin-1-yl)ethoxy]phenyl}-6-(5-fluorofuran-2-yl)thieno[2,3-d]pyrimidin-4-yl]-2-(2,2,2-trifluoroethoxy)-D-phenylalanine] | 294 | 0.057 |  | 
9 | Cc1c(-c2c(-c3ccc(F)o3)sc3ncnc(NC(Cc4ccccc4OCc4ccnn4C)C(=O)O)c23)ccc(OCCN2CCN(C)CC2)c1Cl [Example 20, N-[(5Sa)-5-{3-chloro-2-methyl-4-[2-(4-methylpiperazin-1-yl)ethoxy]phenyl}-6-(5-fluorofuran-2-yl)thieno[2,3-d]pyrimidin-4-yl]-2-[(1-methyl-1H-pyrazol-5-yl)methoxy]-D-phenylalanine] | 78.6 | 0.026 |  | 
10 | CCn1nccc1COc1ccccc1CC(Nc1ncnc2sc(-c3ccc(F)o3)c(-c3ccc(OCCN4CCN(C)CC4)c(Cl)c3C)c12)C(=O)O [Example 21, N-[(5Sa)-5-{3-chloro-2-methyl-4-[2-(4-methylpiperazin-1-yl)ethoxy]phenyl}-6-(5-fluorofuran-2-yl)thieno[2,3-d]pyrimidin-4-yl]-2-[(1-ethyl-1H-pyrazol-5-yl)methoxy]-D-phenylalanine] | 39.7 | 0.006 |  | 
11 | CCCCn1nccc1COc1ccccc1C[C@@H](Nc1ncnc2sc(-c3ccc(F)o3)c(-c3ccc(OCCN4CCN(C)CC4)c(Cl)c3C)c12)C(=O)O [Example 23, 2-[(1-butyl-1H-pyrazol-5-yl)methoxy]-N-[(5Ra)-5-{3-chloro-2-methyl-4-[2-(4-methylpiperazin-1-yl)ethoxy]phenyl}-6-(5-fluorofuran-2-yl)thieno[2,3-d]pyrimidin-4-yl]-D-phenylalanine] |  |  | > 600 | percentage fluorescence polarisation inhibition, Mcl-1 FP (Mcl-1 protein; partial inhibitors, @ 1 μM test compound): 41.27% @ 1 μM
12 | Cc1c(-c2c(-c3ccc(F)o3)sc3ncnc(N[C@H](Cc4ccccc4OCc4ccnc(OCC(F)(F)F)n4)C(=O)O)c23)ccc(OCCN2CCN(C)CC2)c1Cl [Example 25, N-[(5Ra)-5-{3-chloro-2-methyl-4-[2-(4-methylpiperazin-1-yl)ethoxy]phenyl}-6-(5-fluorofuran-2-yl)thieno[2,3-d]pyrimidin-4-yl]-2-{[2-(2,2,2-trifluoroethoxy)pyrimidin-4-yl]methoxy}-D-phenylalanine] |  |  | > 600 | percentage fluorescence polarisation inhibition, Mcl-1 FP (Mcl-1 protein; [2]): 55.5% @ 10 μM
13 | Cc1c(-c2c(-c3ccc(F)o3)sc3ncnc(NC(Cc4ccccc4OCc4ccnc(OCC(F)(F)F)n4)C(=O)O)c23)ccc(OCCN2CCN(C)CC2)c1Cl [Example 26, N-[(5Sa)-5-{3-chloro-2-methyl-4-[2-(4-methylpiperazin-1-yl)ethoxy]phenyl}-6-(5-fluorofuran-2-yl)thieno[2,3-d]pyrimidin-4-yl]-2-{[2-(2,2,2-trifluoroethoxy)pyrimidin-4-yl]methoxy}-D-phenylalanine] | 6.36 | 0.012 |  | 
14 | COc1ccccc1-c1nccc(COc2ccccc2CC(Nc2ncnc3sc(-c4ccc(F)o4)c(-c4ccc(OCCN5CCN(C)CC5)c(Cl)c4C)c23)C(=O)O)n1 [Example 27, N-[(5Sa)-5-{3-chloro-2-methyl-4-[2-(4-methylpiperazin-1-yl)ethoxy]phenyl}-6-(5-fluorofuran-2-yl)thieno[2,3-d]pyrimidin-4-yl]-2-{[2-(2-methoxyphenyl)pyrimidin-4-yl]methoxy}-D-phenylalanine] | 2.09 | 0.011 |  | 
15 | Cc1c(-c2c(-c3ccc(F)o3)sc3ncnc(NC(Cc4ccccc4O)C(=O)O)c23)ccc(OCCN(C)C)c1Cl [Example 28, N-[(5Sa)-5-{3-chloro-4-[2-(dimethylamino)ethoxy]-2-methylphenyl}-6-(5-fluorofuran-2-yl)thieno[2,3-d]pyrimidin-4-yl]-2-hydroxy-D-phenylalanine] | > 1880 | 0.116 |  | 
16 | Cc1c(-c2c(-c3ccsc3)sc3ncnc(NC(Cc4ccccn4)C(=O)O)c23)ccc(OCCN2CCN(C)CC2)c1Cl [Example 29, N-[(5Sa)-5-{3-chloro-2-methyl-4-[2-(4-methylpiperazin-1-yl)ethoxy]phenyl}-6-(thiophen-3-yl)thieno[2,3-d]pyrimidin-4-yl]-3-pyridin-2-yl-D-alanine] | 2520 | 0.063 |  | 
17 | Cc1c(-c2c(-c3ccsc3)sc3ncnc(N[C@H](Cc4ccccn4)C(=O)O)c23)ccc(OCCN2CCN(C)CC2)c1Cl [Example 30, N-[(5Ra)-5-{3-chloro-2-methyl-4-[2-(4-methylpiperazin-1-yl)ethoxy]phenyl}-6-(thiophen-3-yl)thieno[2,3-d]pyrimidin-4-yl]-3-pyridin-2-yl-D-alanine] |  |  | > 3750 | percentage fluorescence polarisation inhibition, Mcl-1 FP (Mcl-1 protein; [2]): 68.2% @ 10 μM
18 | Cc1c(-c2c(-c3ccsc3)sc3ncnc(N[C@H](CC4CCCCC4)C(=O)O)c23)ccc(OCCN2CCN(C)CC2)c1Cl [Example 31, N-[(5Ra)-5-{3-chloro-2-methyl-4-[2-(4-methylpiperazin-1-yl)ethoxy]phenyl}-6-(thiophen-3-yl)thieno[2,3-d]pyrimidin-4-yl]-3-cyclohexyl-D-alanine] |  |  | > 3750 | percentage fluorescence polarisation inhibition, Mcl-1 FP (Mcl-1 protein; [2]): 16.7% @ 10 μM
19 | Cc1c(-c2c(-c3ccsc3)sc3ncnc(NC(CC4CCCCC4)C(=O)O)c23)ccc(OCCN2CCN(C)CC2)c1Cl [Example 32, N-[(5Sa)-5-{3-chloro-2-methyl-4-[2-(4-methylpiperazin-1-yl)ethoxy]phenyl}-6-(thiophen-3-yl)thieno[2,3-d]pyrimidin-4-yl]-3-cyclohexyl-D-alanine] | > 3750 | 0.007 |  | 
20 | Cc1c(-c2c(-c3ccsc3)sc3ncnc(NC(Cc4ccccc4F)C(=O)O)c23)ccc(OCCN2CCN(C)CC2)c1Cl [Example 34, N-[(5Sa)-5-{3-chloro-2-methyl-4-[2-(4-methylpiperazin-1-yl)ethoxy]phenyl}-6-(thiophen-3-yl)thieno[2,3-d]pyrimidin-4-yl]-2-fluoro-D-phenylalanine] | 4270 | 0.726 |  | 
21 | Cc1c(-c2c(-c3ccsc3)sc3ncnc(NC(Cc4ccccn4)C(=O)O)c23)ccc(OCCN2CCOCC2)c1Cl [Example 35, N-[(5Ra)-5-{3-chloro-2-methyl-4-[2-(morpholin-4-yl)ethoxy]phenyl}-6-(thiophen-3-yl)thieno[2,3-d]pyrimidin-4-yl]-3-pyridin-2-yl-D-alanine] |  |  | > 30000 | percentage fluorescence polarisation inhibition, Mcl-1 FP (Mcl-1 protein; [2]): 24.78% @ 10 μM
